Source: US7442855B2, “Insecticidal plant cyclotide with activity against Homopteran insects” (E. I. du Pont De Nemours and Company, priority 2004, dated 2008)
Where a SMILES comes first, the peptide text is derived from it. Bridges are numbered along the chain shown (N, C = ends).

What was measured:
Aphis glycines = experiment: Dose response insect-feeding assay for E5 against Aphis glycines (sucrose/parafilm membrane, mortality scored after 72 hours); type: in vivo; details: adult insects, two replicates
Procedure: (§1) To test for the insecticidal activity of cyclotide E5 against the target homopteran pests, the lyophilized fractionated samples were placed in 96-well microtiter plates, resuspended in H2O and added to a 20% sucrose solution as detailed below. Parafilm was stretched to just short of its breaking point and used to seal the sucrose/sample reservoir. Adult insects were then added on top of the membrane in a second chamber such that the base of the insect enclosure was the parafilm membrane. The top of the insect chamber was then sealed with plastic wrap and punctured for air exchange. The number of insects feeding from each well was determined. The assay was scored after 72 hours and nsecticidal activity was measured based on insect mortality.
(§2) Specifically, for the dose-response assay results shown in Tables 1 and 2, lyophilized RP-HPLC-pure sample was resuspended in 300 μL H2O and added to 20% sucrose in the following volumes: 60, 45, 25, 10, and 5 μL. Two replicates per dose were prepared, including two negative controls. After 72 hours, the wells were scored for insect mortality.

Peregrinus maidis = experiment: Dose response insect-feeding assay for E5 against Peregrinus maidis (sucrose/parafilm membrane, mortality scored after 72 hours); type: in vivo; details: adult insects, two replicates
Procedure: as §1, §2

Structure (SMILES): CC[C@H](C)[C@@H]1NC(=O)[C@H](Cc2ccc(O)cc2)NC(=O)[C@H](C(C)C)NC(=O)[C@@H]2CSSC[C@@H]3NC(=O)[C@H](CCCCN)NC(=O)[C@@H]4CSSC[C@H](NC(=O)[C@@H]5CCCN5C(=O)[C@H]([C@@H](C)CC)NC(=O)[C@H](CCCCN)NC(=O)[C@H](CC(N)=O)NC(=O)[C@H](Cc5ccc(O)cc5)NC(=O)[C@H](CSSC[C@H](NC(=O)CNC1=O)C(=O)N[C@@H]([C@@H](C)O)C(=O)N[C@@H](CC(C)C)C(=O)N[C@@H]([C@@H](C)O)C(=O)N[C@@H](C)C(=O)N[C@@H](CC(C)C)C(=O)N[C@@H](C)C(=O)NCC(=O)N4)NC(=O)[C@H](C(C)C)NC(=O)[C@H](CCCCN)NC(=O)[C@H](CC(N)=O)NC(=O)[C@H](CCCCN)NC3=O)C(=O)NCC(=O)N[C@@H](CCC(=O)O)C(=O)N[C@@H](CO)C(=O)N2 [E5] (cyclo(AGCKCKNKVCYNKIPCGESCVYIGCTLTAL); disulfide 3-16, 5-20, 10-25 (inferred); ring closure inferred)
- average percent (%) insect mortality (Aphis glycines; E5 concentration 6.36 μM (5 μL)): 56.5%
- average percent (%) insect mortality (Aphis glycines; E5 concentration 12.73 μM (10 μL)): 80%
- average percent (%) insect mortality (Aphis glycines; E5 concentration 31.81 μM (25 μL)): 75%
- average percent (%) insect mortality (Aphis glycines; E5 concentration 57.26 μM (45 μL)): 95%
- average percent (%) insect mortality (Aphis glycines; E5 concentration 76.35 μM (60 μL)): 100%
- average percent (%) insect mortality (Peregrinus maidis; E5 concentration 2.73 μM (5 μL)): 90%
- average percent (%) insect mortality (Peregrinus maidis; E5 concentration 4.09 μM (10 μL)): 90%
- average percent (%) insect mortality (Peregrinus maidis; E5 concentration 9.97 μM (25 μL)): 95%
- average percent (%) insect mortality (Peregrinus maidis; E5 concentration 16.61 μM (45 μL)): 100%
- average percent (%) insect mortality (Peregrinus maidis; E5 concentration 33.22 μM (60 μL)): 100%
